Results as given in PMC6290777, “Inhalation of the prodrug PI3K inhibitor CL27c improves lung function in asthma and fibrosis” (Nature Communications, 2018).

Assays:
[1] = tested on: OVA-induced acute allergic asthma; assay: OVA-induced acute allergic asthma model; type: in vivo, BALB/c mice
Protocol: On Days 1 and 14, BALB/c mice (6–8 weeks) received an intraperitoneal injection (i.p.) of a solution containing 0.5 mg/ml OVA and 5 mg/ml Alum (described in Fig. 2). Untreated controls were injected with a solution of 5 mg/ml Alum. […] Untreated control groups included mice challenged with PBS alone. On day 29, mice were sacrificed, and samples were collected for further analysis.
BALF was performed to obtain leukocytes from alveolar space. The trachea was exposed and a 1.7-mm-outside-diameter polyethylene catheter was inserted. BAL was performed by washing the lungs three-times with three different 500 µl aliquots of PBS. BALF samples were centrifuged at 600 × g for 10 min at 4 °C on a histology glass slide and stained with Diff Quick (MICROPTIC, #DQ-ST). The number of leukocytes and differential counts of different population were obtained evaluating the percentage leukocyte populations over the total cell number.
IL-5, IL-13, eotaxin, TGF-β, KC, IL-17A, and MCP-1 levels in the BALF and anti-OVA IgE levels in serum were measured by ELISA technique using commercial DuoSet kits R&D Systems according to the instructions of the manufacturer. Results were expressed in levels of cytokines per ml of […] (pg/ml) or arbitrary units (A.U.).
Immunohistochemistry for CD18 was performed using the streptavidin-biotin-peroxidase method in formalin-fixed, paraffin-embedded tissue sections (5 µm thick) mounted on poly-L-lysine-coated microscope slides. Lung cross-sections were deparaffinized and rehydrated through xylene and graded alcohols. After antigen retrieval, endogenous peroxidase was blocked (15 min) with 3% (v/v) hydrogen peroxide and washed in phosphate-buffered saline (PBS). Sections were incubated overnight (4 °C) with primary rabbit anti-CD18 antibody (Acris Antibodies GmbH, Germany, Cat. Number B0842-1) diluted 1:400 in PBS plus bovine serum albumin (PBS-BSA) or rabbit anti/PAkt (S473) diluted 1:100 in PBS/BSA. The slides were then incubated with biotinylated goat anti-rabbit antibody (Dako Agilent Pathology Solution, USA) diluted 1:1000 in PBS/BSA. After washing, the slides were incubated with avidin-biotin-horseradish peroxidase conjugate (Dako Agilent Pathology Solution, USA) for 30 min, according to the manufacturer’s instructions. CD18 and PAkt-positive cells were visualized with the chromogen 3,3′-diaminobenzidine (DAKO liquid DAB + substrate chromogen system, CA, USA). Slides were counterstained with Harry’s hematoxylin, dehydrated in a graded alcohol series, cleared in xylene, and cover slipped.
Lung, liver, and heart samples were collected for western blot detection of akt phosphorilation levels. Protein samples were resolved by 10% SDS-PAGE and transferred on to PVDF (Immobilon™-P) membranes. The membranes were blocked with 5% BSA in 1x TBS with 0.3% Tween 20 for 30 min at […]. Then, the membranes were incubated overnight at 4 °C with primary antibodies (phosphorylated Akt serine 473, 1:1000, Cell Signaling Technology, Cat. Number 4060) and 1 h with HRP-conjugated secondary antibody (1:10000). The blots were visualized in ECL solution for 1 min and images were captured on Luminescent Image Analyser (ChemiDoc Imaging Systems, Bio-Rad Laboratories, USA). For loading control, the blots were striped and reassessed with pan Akt (1:1000) antibody. For quantification, specific phosphorylation was calculated as the ratio of signals for phosphorylated Akt to the signal of total Akt detected. Values of unstimulated samples were set to 1.0. Uncropped scans of the most important blots are provided as a supplementary figure in the Supplementary Information (Supplementary Fig. 15).

[2] = tested on: bleomycin-induced lung fibrosis; assay: Bleomycin-induced lung injury and fibrosis in mice; type: in vivo, C57BL/6J mice
Protocol: Eight-to-ten-week-old C57BL/6J males were used in bleomycin-induced lung injury and fibrosis model[10],[51]. Briefly, a single 40 µl injection containing 3.75 or 2 mg/kg of bleomycin sulfate (Sigma Aldrich-MERCK #B1141000) diluted in PBS or PBS only (vehicle) was instilled intratracheally. […]
Levels of hydroxyproline in lung tissues were measured using the Hydroxyproline Assay kit (Sigma-Audrich, St. Louis, MO, USA) according to the manufacturer’s instructions. Briefly, 10 mg of pulverized frozen lungs homogenized in 100 µL of concentrated hydrochloric acid (HCl, 12 M), and hydrolyzed at 120 °C for 3 h. Then, 5 µL of each sample in triplicate were used to the assay. […] The absorbance was obtained at 560 nm. The final results are expressed as concentration of hydroxyproline in µg/mL.
The left lung was removed and fixed in 4% neutral phosphate-buffered formalin (pH 7.4)[10]. The tissues were dehydrated gradually in ethanol, embedded in paraffin, cut into 4 µm sections, stained with H&E, Gomori’s trichrome and periodic acid schiff (PAS), and examined under light microscopy by a pathologist in a double blinded manner. Images of lung sections were captured with a digital camera (Optronics DEI-470) connected to a microscope (Olympus IX70) with a magnification of ×40 or ×100. Inflammation was scored according to modification of existing protocols[53] and to the histopathology criteria reported in Supplementary Table 4. […]
For quantitative measurements, total RNA was extracted from lung tissues using the High Pure RNA isolation kit (Invitrogen, Life Technologies, Paisley, UK) and reverse-transcribed with the Superscript first-strand synthesis system kit (Invitrogen, Life Technologies, Paisley, UK). Specific mRNA sequences were quantified by real-time PCR with primer/probe combinations based on the Roche Universal ProbeLibrary Set, Mouse (Tgfb1 probe: #72, Ctgf probe: #71, Col1a1 probe: #15 and Mmp2 probe #49). Primer sequences are listed in Supplementary Table 5.

[3] = late treatment, day 17 to day 27
[4] = moderate model, bleomycin 2 mg/kg, aerosolized CL27c 2 mg/ml
[5] = moderate model, therapeutic aerosolized CL27c
[6] = severe model, bleomycin 3.75 mg/kg

`COC(=O)c1cccc(Cn2cc(-c3cccc4c(=O)cc(N5CCOCC5)[nH]c34)nn2)c1` [CL27c] was tested, and the “TGF-β in lung tissue lysates” value ([1]; OVA-challenged mice as described in Fig. 2, inhaled CL27c) was “reduction of transforming growth factor-β (TGF-β) and IL-13 to the level detected in unsensitized controls”, the “IL-10 in lung tissue lysates” value ([1]; OVA-challenged mice as described in Figure 2, inhaled CL27c) was “increased pulmonary abundance of IL-10” and the “efficacy on OVA-induced acute asthma” value ([1]; highest dose, 20 mg/ml) was “inconsistent outcomes”. For the same molecule, the “IL-5 and IL-13 levels in lung tissue” value ([1]; inhaled CL27c 2 mg/ml) was “restored both IL-5 and IL-13 to the levels detected in unsensitized control mice”, the “reduction of eosinophils accumulation in BALF” value ([1]; inhaled CL27c 2 mg/ml) was 70% and the “reduction of lymphocytes accumulation in BALF” value ([1]; inhaled CL27c 2 mg/ml) was 72%. The “reduction of macrophages accumulation in BALF” value ([1]; inhaled CL27c 2 mg/ml) was 60%, the “reduction of neutrophils accumulation in BALF” value ([1]; inhaled CL27c 2 mg/ml) was 68% and the “Akt phosphorylation in lung lysates and sections” value ([1]; inhaled CL27c 2 mg/ml, day 29) was “decrease in Akt phosphorylation”. For the same molecule, the “CD18-positive leukocyte recruitment to the lung” value ([1]; inhaled CL27c 2 mg/ml, immunohistochemistry) was “reduced leukocyte recruitment”, the “efficacy on OVA-induced acute asthma” value ([1]; lowest dose, 0.2 mg/ml) was “no efficacy” and the “Akt phosphorylation in lung protein extracts and sections” value ([2]; bleomycin model) was “blunted the increase of Akt phosphorylation”. For the same molecule, the lung function [2, 3] was “improved lung function”, the mortality [2, 3] was “significantly blunts mortality” and the fibrotic collagen deposition ([2]; late treatment, day 17 to day 27 after bleomycin 2 mg/kg) was “still effective in reducing fibrotic collagen deposition”. For the same molecule, the “lung elasticity (pulmonary compliance) restored, relative to controls” value ([2]; moderate model) was 75 % of controls, the lung resistance ([2]; moderate model) was “reduce the gain in lung resistance almost to the level of healthy mice” and the survival ([2]; moderate model, 22 days after instillation, bleomycin alone 50% mortality) was 100%. The “fibrotic remodeling (Ashcroft score, collagen content)” value ([2]; moderate model, bleomycin 2 mg/kg) was “significantly reduce fibrotic remodeling”, the “abundance of active TGF-β1” value [2, 4] was “significantly decreased the abundance of active TGF-β1” and the “mRNA levels of Tgfb1, Ctgf, Col1a1, Mmp2” value [2, 4] was “attenuated mRNA levels of Tgfb1”. For the same molecule, the “neutrophil-derived MPO levels in the lungs” value [2, 4] was “markedly reduced”, the “airway inflammation (BALF cells)” value ([2]; moderate model, bleomycin 2 mg/kg, aerosolized CL27c 2 mg/ml day 10 to 21) was “markedly reduced airway inflammation” and the histopathological inflammation score ([2]; moderate model, day 22) was “significantly attenuated in airways, vasculature, and parenchyma”. For the same molecule, the “TLC, inspiratory capacity, forced vital capacity, and FEV” value [2, 5] was “significant recovery back to normal levels”, the “pressure–volume curve” value [2, 5] was “significantly improved the pressure–volume curve” and the “hydroxyproline deposition in lungs” value [2, 6] was “significantly decreased hydroxyproline deposition in lungs”. The “infiltration of macrophages and neutrophils” value [2, 6] was “reduced infiltration of either macrophages or neutrophils” and the “mortality within 21 days” value ([2]; severe model, bleomycin 3.75 mg/kg, CL27c could not protect) was 100%.
